# Patent US9290528B1, “Light-activated compounds” (University of Kentucky Research Foundation, priority 2013, dated 2016)
# Where “and” joins values, the source holds several entries; their conditions need not be identical. Identical values can stand only once. Like-named read-outs stand apart in the source and are kept apart here.
# Tests used:
# [1] = system: HL60 promyelocytic leukemia cell line; experiment: Cell survival assay, HL60; format: cell-based; conditions: for Phototoxicity Index, PI HL60: ratio of dark and light IC50
# Experimental: (§1) The HL60 promyelocytic leukemia cell line was obtained from ATCC and cultured in IMDM media (Invitrogen; Carlsbad, Calif.) supplemented with 10% serum supreme (Lonza; Basel, Switzerland) and penicillin/streptomycin at 37° C. with 5% CO2. The A549 cell line was donated and cultured in DMEM supplemented with glutamax, 10% serum supreme, and penicillin/streptomycin at 37° C. with 5% CO2. Cells were plated in Optimem (Life Technologies; Carlsbad, Calif.) supplemented with 1% serum supreme and penicillin/streptomycin at 30,000 cells per well in Costar 96 well flat bottom clear tissue culture treated plates for HL60 and 1500 cells/well for A549. […] The cells were then incubated for 72 hours followed by the addition of Cell Titer Glo (Promega; Madison, Wis.) to determine viability. Dark controls were run in parallel. The resulting luminescence was measured using the SpectraFluor Plus Plate Reader (Tecan). Data were fit to an equation for a sigmoidal dose response using the equation below, where yi and yf are the initial and final signal intensities.
# (§2) Cell cytotoxicity studies were performed in HL60 leukemia cells and A549 lung cancer cells (see FIG. 7 and Table 3). Cells were incubated with compounds for 12 hours in the dark before irradiated with >450 nm light (410 W) for 3 minutes. Dark controls were run in parallel. Cell survival was quantified 72 hours later through the use of an ATP luciferase assay, and confirmed by Trypan Blue staining and manual counting.
# A549 tumor spheroids = experiment: A549 tumor spheroid cytotoxicity; format: cell-based; conditions: for MCR Index: ratio of spheroid and monolayer culture IC50
# Experimental: A549 cells were seeded at 2,500 cells/well in 1.5% agarose coated 96-well plates. After 7 days the spheroids were dosed with compounds and incubated for 12 hrs. […] Cellular viability was determined 72 hours after light activation for the irradiated samples and at the same time point for the dark samples by measuring ATP concentration with CellTiter Glo (Promega). Data were fit to an equation for sigmoidal dose response shown above using the Prism software package.
# 3D tumor spheroids were used to test the compounds. Spheroids provide a system that approximates the complexity of in vivo tumors. These spheroids mimic the pathophysiology of tumors, including hypoxic/necrotic regions, changes in cell shape, high proportions of quiescent cells, alterations in gene expression profiles, and diminished permeability to drugs. […] To characterize the light-activated ruthenium compounds under more challenging and biologically relevant conditions, efficacy was assessed in a 3D tumor model by forming tumor spheroids with A549 cells.
# Spheroids of about 600 μm in diameter were dosed with compounds and then either kept in the dark or irradiated with >450 nm light for 3 minutes.
# A549 lung cancer cells = experiment: Cell survival assay, A549 monolayer; format: cell-based; conditions: for Phototoxicity Index, PI A549: ratio of dark and light IC50
# Experimental: as §1, §2
# pUC19 plasmid [2] = experiment: Glutathione assay: pUC19 crosslinking with increasing GSH; format: biochemical; conditions: 30 μM compound, 0.01-40 mM GSH; 4 light-activated
# Experimental: The concentrations of GSH were 0.01, 0.1, 1, 10, 40 mM, giving a molar ratio between the compounds and glutathione of a) 1:0.3, b) 1:3.3, c) 1:33, d) 1:333, e) 1:1333. […] Control reactions with pUC19 in the presence and absence of GSH were carried out for 12 hrs in the dark with 25 μg/ml plasmid and 40 mM GSH in 10 mM phosphate buffer, pH 7.5. The plasmid was resolved on a 1% agarose gel as described above.
# (§3) The photoactivated DNA crosslinking Ru(bpy)2 species retained its ability to damage DNA, even at higher GSH concentrations.
# [3] = system: HL60 leukemia cells and A549 lung cancer cells; experiment: Cell cytotoxicity studies, summary over HL60 and A549; format: cell-based; conditions: for activity light versus dark: >450 nm light 3 minutes vs dark
# Experimental: as §1, §2
# HL60 cells [4] = experiment: Genomic DNA laddering by gel electrophoresis; format: cell-based, human; conditions: dark / not irradiated
# Text: To further analyze the mechanisms of cell death induced by 9 and 10, the degradation pattern of genomic DNA was investigated. DNA laddering was observed as a result of DNA fragmentation stemming from the execution phase of apoptosis. In contrast, necrotic cell death lacked this characteristic laddering effect, allowing differentiation between these two mechanisms. […] This laddering was absent in the cells treated with ethanol and compounds 9 and 10 in the dark. […] In contrast, given the cytotoxicity of 9 in the dark and the presence of the 55 kDa PARP fragment, it appears that necrotic cell death is one pathway for […]. For compound 10 the absence of DNA laddering may be a result of the lack of cytotoxicity of the negatively charged compound.
# [5] = Light and dark cytotoxicity of exemplary compounds (Table 6); format: cell-based; conditions: for IC50: cell line not stated; for Phototoxicity Index: dark IC50/light IC50
# Text: This Example describes additional specific embodiments the presently-disclosed subject matter. […] The methods for making and characterizing the compounds are based on the methodologies described in the previous examples.
# HL60 cells [6] = experiment: Western blot of PARP and caspase 3 cleavage; format: cell-based, human; conditions: protected from light and irradiated
# Experimental: Given the different cellular localization properties and time profiles for cell death induced by 9 and 10, the mechanism of cell death was investigated. Indicators of apoptotic cell death (activation of PARP and caspase 3 through proteolysis) were determined in HL60 cells treated with either 9 or 10 (FIGS. 15A and 15B).
# The generation of an alternate 55 kDa PARP fragment was determined by immunoblot as a marker for necrosis with 10% (v/v) ethanol used as a control that induces necrosis.
# [7] = system: HL-60 human leukemia cell line; experiment: Cytotoxicity in HL-60 cells, dark and irradiated (Example 1); format: cell-based
# Experimental: Cytotoxicity studies were performed to determine if the light-induced DNA damage translated to biological activity in cancer cells. […] The compounds were incubated with the cells for 12 hours prior to irradiation with blue (>400 nm), red (>600 nm), and near-IR (>650 nm) light (Table 2). […] Increasing the light dose increased the observed potency. […] A phototoxicity index (PI) value (the toxicity in the dark vs. the light) of 43 was found with blue light for compound 1.
# pUC19 plasmid [8] = experiment: Plasmid-compound gel analysis (Example 2); conditions: visible light 200 W, 1 hour
# Experimental: Plasmid-compound gel analysis: Plasmid pUC19 was obtained from Bio-Rad (Hercules, Calif.), transformed into DH5a cells and positive transformants were selected by colony formation on Ampicillin LB-Agar plates. Colonies were grown in LB and plasmid isolated using a Maxi-prep plasmid isolation kit (Qiagen; Velno, Netherlands). Plasmid amounts were quantified by UV/VIS. For dosing studies, 40 μg/ml of plasmid was incubated with compound dosed from 0 to 500 μM in 96 well plates. They were incubated for 30 min prior to light activation for 1 hour using a Dell 1410x 200 W projector fitted with a >450 nm cut-off filter. Dark controls were performed by keeping the DNA:compound mixtures in the dark. The samples were incubated overnight after light activation before gel analysis; the dark samples were also incubated for the same time period. Linear plasmid and relaxed circle plasmid were generated and run side-by-side with compound treated samples. Linear plasmid was generated using the EcoRI restriction enzyme (New England BioLabs; Ipswich, Mass.) following the manufacturers protocol. Single cut, relaxed circle, plasmid was generated using the copper phenanthroline reaction. Reaction was carried out in 10 mM phosphate buffer pH 7.5, with 40 μg/ml plasmid, 1 mM DTT, 1 mM hydrogen peroxide, and 5 μM copper phenanthroline for 30 min at 25° C. The addition of DTT reduced the copper phenanthroline to the +1 charge state, followed by reaction with peroxide created the damage to the DNA. Samples were resolved on a 1% non-EB (ethidium bromide) agarose gel followed by 40 minutes of staining with 0.5 μg/ml EB in Tris-Acetate buffer followed by 40 minutes of destaining in Tris-Acetate before imaging.
# [9] = Interaction of prodrug compounds with GSH by UV/Vis spectroscopy; format: physicochemical; conditions: period of days
# Text: as §3
# CT DNA = experiment: DNA binding affinity (Kb) with CT DNA; parameters: species or system calf; conditions: racemic mixtures
# Text: Intercalation of both complexes was consistent with the reduced mobility of supercoiled plasmid DNA in agarose gels, and the modulation of the absorption spectra in the presence of DNA, characterized by hypochromism of both the π-π* of the dppz ligand and the MLCT transitions, with maximal effect at a ratio of 2:1 DNA base pairs to metal center. Thus, the strained complex retained DNA-sensing capabilities of other Ru^II “light-switch” molecules and photochemical reactivity.
# [10] = 3 min >450 nm light, 72 hours, read-out: Light IC50 HL60
# [11] = dark, read-out: Dark IC50 A549 spheroid
# [12] = 3 min >450 nm light, 72 hours, read-out: Light IC50 A549
# [13] = 3 min >450 nm light, 72 hours, read-out: Light IC50 A549 spheroid
molecule,measurement,setting,value
"Cl.NCC(=O)CCC(=O)O [ALA, 5-aminolevulinic acid hydrochloride, reference compound]",IC50,"[1]; Homo sapiens, HL-60, 3 min >450 nm light, 72 hours, read-out: Light IC50 HL60",16.2 µM
same,IC50,"[1]; Homo sapiens, HL-60, read-out: Dark IC50 HL60",> 300 µM
same,"Phototoxicity Index, PI HL60",[1],>18
same,Light IC50 A549 spheroid,"A549 tumor spheroids; 3 min >450 nm light, 72 hours",had no effect
same,IC50,"A549 tumor spheroids; Homo sapiens, A549, 3 min >450 nm light, 72 hours, read-out: Light IC50 A549 spheroid",> 300 µM
same,IC50,"A549 tumor spheroids; Homo sapiens, A549, read-out: Dark IC50 A549 spheroid",> 300 µM
same,MCR Index,A549 tumor spheroids,>14
same,IC50,"A549 lung cancer cells; Homo sapiens, A549, 3 min >450 nm light, 72 hours, read-out: Light IC50 A549",21 µM
same,IC50,"A549 lung cancer cells; Homo sapiens, A549, read-out: Dark IC50 A549",87.8 µM
same,"Phototoxicity Index, PI A549",A549 lung cancer cells,4.2
"N.N.[Cl][Pt][Cl] [Cisplatin, reference compound]",plasmid DNA crosslinking in presence of increasing GSH,pUC19 plasmid [2],reduced crosslinking efficacy
same,activity light versus dark,[3],same activity under light and dark conditions
same,IC50,[1]; [10],3.1 µM
same,IC50,"[1]; dark, read-out: Dark IC50 HL60",3.1 µM
same,IC50,A549 tumor spheroids; [11],42 µM
same,genomic DNA laddering,HL60 cells [4],initiated DNA fragmentation resulting in a laddering pattern
same,IC50,[5]; read-out: Dark IC50,3.1 µM
same,IC50,[5]; read-out: Light IC50,3.1 µM
same,55 kDa PARP fragment (marker for necrosis),HL60 cells [6],also produced this cleavage product
same,IC50,A549 lung cancer cells; [12],3.4 µM
same,IC50,"A549 lung cancer cells; dark, read-out: Dark IC50 A549",3.5 µM
same,IC50,"[7]; HL-60, dark, read-out: IC50 Dark",3.1 µM
same,IC50,"[7]; HL-60, light condition not given, read-out: IC50",3.1 µM
same,IC50,"[7]; read-out: IC50 Blue (3 min), HL-60, 12 hours incubation, blue (>400 nm) light 3 min",3.1 µM
"[Ru+2].c1ccc(-c2ccccn2)nc1.c1ccc(-c2ccccn2)nc1.c1cnc2c(c1)ccc1cccnc12 [Compound 3, Ru(bpy)2phen]",IC50,[1]; [10],81 µM
same,IC50,"[1]; dark, read-out: Dark IC50 HL60",240 µM
same,"Phototoxicity Index, PI HL60",[1],3
same,IC50,A549 tumor spheroids; [13],> 300 µM
same,IC50,A549 tumor spheroids; [11],> 300 µM
same,MCR Index,A549 tumor spheroids,>7.5
same,type of DNA damage upon visible light,pUC19 plasmid [8],DNA photocleavage
same,IC50,A549 lung cancer cells; [12],40 µM
same,IC50,"A549 lung cancer cells; dark, read-out: Dark IC50 A549",250 µM
same,"Phototoxicity Index, PI A549",A549 lung cancer cells,6.3
"Cc1ccc2c3nccnc3c3ccc(C)nc3c2n1.F[P-](F)(F)(F)(F)F.F[P-](F)(F)(F)(F)F.[Ru+2].c1ccc(-c2ccccn2)nc1.c1ccc(-c2ccccn2)nc1 [Compound 5, Ru(bpy)2dmdpq]",activity light versus dark,[3],light-triggered toxicity
same,IC50 values after irradiation,[3]; after irradiation,single μM IC50 values
same,IC50,[3]; dark,> 100 µM
same,IC50,[1]; [10],2.6 µM
same,IC50,"[1]; dark, read-out: Dark IC50 HL60",108 µM
same,"Phototoxicity Index, PI HL60",[1],216
same,IC50,A549 tumor spheroids; [13],64 µM and 64.6 µM
same,IC50,A549 tumor spheroids; [11],> 300 µM
same,MCR Index,A549 tumor spheroids,54
same,IC50,[5]; read-out: Dark IC50,250 µM
same,IC50,[5]; read-out: Light IC50,0.6 µM
same,Phototoxicity Index,[5],400
same,type of DNA damage upon visible light,pUC19 plasmid [8],combination of these two mechanisms
same,IC50,A549 lung cancer cells; [12],1.2 µM
same,IC50,"A549 lung cancer cells; dark, read-out: Dark IC50 A549",250 µM
same,"Phototoxicity Index, PI A549",A549 lung cancer cells,208
same,interaction with GSH,[9],did not interact with GSH
Cc1cc(-c2ccccc2)c2ccc3c(-c4ccccc4)cc(C)nc3c2n1.[Ru+2].c1ccc(-c2ccccn2)nc1.c1ccc(-c2ccccn2)nc1 [Ru(bpy)2bathocuprione],IC50,[5]; read-out: Dark IC50,27 µM
same,IC50,[5]; read-out: Light IC50,3.3 µM
same,Phototoxicity Index,[5],8.18
Cc1ccc2ccc3ccc(C)nc3c2n1.[Ru+2].c1ccc(-c2ccccn2)nc1.c1ccc(-c2ccccn2)nc1 [Ru(bpy)2dmphen],IC50,[5]; read-out: Dark IC50,8 µM
same,IC50,[5]; read-out: Light IC50,0.4 µM
same,Phototoxicity Index,[5],20
Cc1ccc2ccc3ccc(C)nc3c2n1.Cc1ccc2ccc3ccc(C)nc3c2n1.[Ru+2].c1ccc(-c2ccnc3c2ccc2c(-c4ccccc4)ccnc23)cc1 [Ru(dmphen)2bathophen],IC50,[5]; read-out: Dark IC50,4.5 µM
same,IC50,[5]; read-out: Light IC50,1.7 µM
same,Phototoxicity Index,[5],2.5
Cc1ccc2ccc3ccc(C)nc3c2n1.Cc1ccc2ccc3ccc(C)nc3c2n1.[Ru+2].c1ccc(-c2ccccn2)nc1 [Ru(dmphen)2bpy],IC50,[5]; read-out: Dark IC50,150 µM
same,IC50,[5]; read-out: Light IC50,1.2 µM
same,Phototoxicity Index,[5],125
Cc1ccc2ccc3ccc(C)nc3c2n1.Cc1ccc2ccc3ccc(C)nc3c2n1.[Ru+2].c1ccc2nc3c4cccnc4c4ncccc4c3nc2c1 [Ru(dmphen)2dppz],IC50,[5]; read-out: Dark IC50,150 µM
same,IC50,[5]; read-out: Light IC50,0.5 µM
same,Phototoxicity Index,[5],300
Cc1ccc2ccc3ccc(C)nc3c2n1.Cc1ccc2ccc3ccc(C)nc3c2n1.[Ru+2].c1cnc2c(c1)c1nccnc1c1cccnc12 [Ru(dmphen)2dpq],IC50,[5]; read-out: Dark IC50,250 µM
same,IC50,[5]; read-out: Light IC50,0.22 µM
same,Phototoxicity Index,[5],"1,130"
Cc1ccc2ccc3ccc(C)nc3c2n1.Cc1ccc2ccc3ccc(C)nc3c2n1.[Ru+2].c1cnc2c(c1)ccc1cccnc12 [Ru(dmphen)2phen],IC50,[5]; read-out: Dark IC50,35 µM
same,IC50,[5]; read-out: Light IC50,0.14 µM
same,Phototoxicity Index,[5],250
"COc1cccc2c1C(=O)c1c(O)c3c(c(O)c1C2=O)C[C@@](O)(C(=O)CO)C[C@@H]3O[C@H]1C[C@H](N)[C@H](O)[C@H](C)O1 [doxorubicin, reference compound]",55 kDa PARP fragment (marker for necrosis),HL60 cells [6],also produced this cleavage product
"Ru(bpy)2dppz [Compound 7, reference compound]",Kb,CT DNA,1e+07 M⁻¹
